In patent publication US20220338463A1, “METHOD OF PRODUCING LYOPHILIZED CELLS” (LONZA LTD, priority 2019, published 2022):

How the values were obtained:
[1] = tested on: SK-N-AS cells; assay: ALAMARBLUE assay of plated cells after freeze-thaw of suspended cells; type: cell-based, Human; conditions: for cell viability after freeze-thawing on decreasing the concentration of PBS: hypotonic conditions, FIG. 11
Method: The cells were plated on a 96-well plate in a density of 2.25×10^5 cells/cm^2 and diluted with medium to the final volume of 200 μL inside the well. The cells were then incubated overnight at 37° C. and 5% CO2 so they attached to the wells. Cells were stained with 10 μL ALAMARBLUE® reagent per 100 μL of medium in the well and incubated for 4 h. Same procedure was applied for a blank, where 200 μL of medium was pipetted into the well. After that, 100 μL of solution above the cells was pipetted into a black non-transparent 96-well plate and fluorescence was measured with SPECTRAMAX® plate reader (excitation λ=550 nm, emission λ=590 nm).
(§1) Formulations were prepared in 50 mL Falcon tubes and subsequently sterile filtered under the bench with 0.22 μm syringe filter and a syringe. Sterile formulations were then stored at 2-8° C. until further use. 0.5 mL of cell suspension in either PBS or medium at a concentration of 20*10^6 cells/mL was mixed with 0.5 mL of pre-warmed sterile formulation. Vials were then stoppered and stored in a −80° C. freezer for minimum overnight.
(§2) Subsequently, the vials were taken from the −80° C. freezer and rapidly thawed in the water bath at 37° C. Immediately after thawing, 0.1 mL of cell suspension was 2× diluted with medium and counted with NucleoCounter to obtain cell viability [%] and concentration inside the vial. Suspension was then plated on a 96-well plate so the cell density was 2.25×10^5 cells/cm^2 (growth area in one well is 0.32 cm^2). Calculation of the volume (V) of cell suspension is according to following equation: […]
Calculated volume was diluted inside of the well with cell growth medium, so that the final volume was 0.2 mL. 96-well plate with samples was incubated overnight in the incubator and ALAMARBLUE® assay was performed the morning after (if not stated differently in the results section).
ALAMARBLUE® on the other hand, contains a reagent called resazurin. This is a non-toxic, blue, weakly fluorescent dye, which can permeate cell membranes. Resazurin undergoes a metabolic reduction inside of the cell to a form called resorufin, which is pink and highly fluorescent. The intensity of fluorescence is proportional to the amount of cells that are able to metabolize resazurin and are thus considered viable.

[2] = tested on: SK-N-AS cells; assay: DAPI/acridine orange viability (NUCLEOCOUNTER) directly after freeze-thaw; type: cell-based, Human; conditions: directly after thawing, FIG. 6
Method: 200 μL of cell suspension was pipetted into 1.5 mL Eppendorf tube and diluted with medium. Diluted suspension was then pipetted with VIAL-[…]™ and inserted into the NUCLEOCOUNTER® for measurement.
as §1, §2
Next, we compared two methods for determining viability and noticed a large discrepancy in obtained results (FIG. 5 and FIG. 6). The reason for this is the difference in underlying principles of viability assessment of both methods. As previously, DAPI/acridine orange staining is performed using NUCLEOCOUNTER®, which is an integrated fluorescence microscope with dual fluorescence channels. One is for staining with acridine orange and the other with DAPI dye. They both bind to DNA and label cellular nuclei with high specificity. Acridine orange can permeate the cell membrane and is used for cell detection, while DAPI cannot permeate the membrane and binds only to nuclei of dead cells with disrupted membrane. Thus, the cell viability according to the DAPI/acridine orange method, is mostly based on the integrity of cell membranes. Dyes are fluorescent and therefore visible when using fluorescence filters in microscope, while cell debris and other particles without DNA are not visible. The software then identifies and analyses the individual cells (even within smaller aggregates) and calculates the viability, by comparing the ratio of signal with Acridine Orange and DAPI staining (according to equation below).

[3] = Freeze drying, visual inspection of lyophilization cake; type: physicochemical; conditions: 1M propylene glycol and 0.1M trehalose formulation; FIG. 21B
Method: Freeze drying was performed with the SP Scientific's LyoStar 3 pilot scale freeze dryer with 0.4 m^2 of shelf surface area. Vials were filled and loaded on a tray under the biosafety bench and then loaded in the freeze dryer. Vials were left on the tray inside the lyophilizer, to avoid any spillage of biomaterial inside the chamber in case of a vial breakage.
Employed conservative lyophilization programs (Table 3 and Table 4) included freezing and primary drying steps. Since it is known from literature, that complete elimination of water and higher temperatures employed during secondary drying negatively impact the cell survival during process, the step was omitted. The product temperature was monitored by including a thermocouple inside the vial, so that its tip touched the bottom of the vial. After unloading of the vials from the lyophilizer, they were visually inspected.

For C[S+](C)[O-] [DMSO, Dimethyl Sulfoxide, reference compound], the “cell viability compared to the untreated control” value ([1]; 5% DMSO, internal data) was “over 80%”.
For OCCO [ethylene glycol, Ethylene glycol], the “densities of plated cells after thawing, 1M ethylene glycol vs 1M propylene glycol” value ([1]; 1M, FIG. 8B) was “not significantly different”, the “cell density after thawing vs propylene glycol, ANOVA and t-test” value ([1]; formulation in medium, P<0.05) was “significantly worse than propylene glycol” and the “cell viability after freeze-thawing on decreasing the concentration of PBS” value [1] was “decrease in cell viability”.
For OCC(O)CO [glycerol, Glycerol], the “cell density after freeze-thaw compared with 5% DMSO formulation in medium” value ([1]; glycerol formulation in medium, FIG. 8A) was “not significantly worse than 5% DMSO formulation”.
In the case of CC(O)CO (centres unmarked) [propylene glycol, Propylene glycol], the “viability after FT of cells (DAPI/acridine testing)” value (from here on “viability … (DAPI/acridine testing)”) ([2]; 0.1M propylene glycol) is reported as “around 50%”, the “viability … (DAPI/acridine testing)” value ([2]; 0.2M propylene glycol) is reported as “around 50%” and the “viability … (DAPI/acridine testing)” value ([2]; 1M propylene glycol) is reported as roughly 100%. The “viability … (DAPI/acridine testing)” value ([2]; 2M propylene glycol) was roughly 100%, the “optimisation of propylene glycol concentration, viability by ALAMARBLUE” value ([1]; 1M concentration, FIG. 7B) was “most favourable” and the “relative viability to control (untreated cells) after freeze thawing” value ([1]; 5% (v/v) in cell medium, FIG. 7A) was “efficient in protecting the cells compared to other tested excipients”. For the same compound, the “cell viability of treated cells relative to untreated cells (metabolic assay)” value ([1]; after FT, compared with DAPI/acridine results, FIG. 5) was “much lower cell viability”, the “cell viability after freeze-thawing on decreasing the concentration of PBS” value [1] was “decrease in cell viability” and the appearance of lyophilizate [3] was “remained in liquid form”.
